This experiment addresses T1, human ferroportin (Homo sapiens, UniProt Q9NP59).
T1 construct: luciferase reporter (read with the Nano-Glo Luciferase Assay System); expressed in transfected cells; host or cells: CHO cells, stably transfected, expression induced with doxycycline
T1 sequence (Q9NP59 1-571): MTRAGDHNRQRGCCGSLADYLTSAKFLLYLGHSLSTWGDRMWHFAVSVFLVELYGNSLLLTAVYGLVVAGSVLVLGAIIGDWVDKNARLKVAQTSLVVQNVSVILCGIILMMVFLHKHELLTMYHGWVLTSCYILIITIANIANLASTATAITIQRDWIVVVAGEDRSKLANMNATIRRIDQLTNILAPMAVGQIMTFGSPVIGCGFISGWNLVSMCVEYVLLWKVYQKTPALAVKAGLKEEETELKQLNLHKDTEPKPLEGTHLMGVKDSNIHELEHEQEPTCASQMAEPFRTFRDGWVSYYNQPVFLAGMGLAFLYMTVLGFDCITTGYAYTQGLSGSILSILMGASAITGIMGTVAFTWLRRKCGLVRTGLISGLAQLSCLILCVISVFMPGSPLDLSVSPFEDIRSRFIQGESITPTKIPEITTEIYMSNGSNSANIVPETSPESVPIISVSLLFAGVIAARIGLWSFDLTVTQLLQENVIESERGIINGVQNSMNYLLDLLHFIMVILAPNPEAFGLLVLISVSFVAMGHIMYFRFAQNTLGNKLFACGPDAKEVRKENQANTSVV
Nature of the experiment: Biological in-vitro ferroportin internalization assay (luciferase reporter). It counts as cell-based. The following applies: average pEC50; stably-transfected CHO cell line expressing human ferroportin tagged to a luciferase reporter; 6 h incubation with test compound. How it is done: The protocol for this assay is generally as described in WO2018/128828, incorporated herein by reference in its entirety. Functional internalization of ferroportin protein was measured using a stably-transfected CHO cell line expressing the human ferroportin tagged to a luciferase reporter. Cells were plated for 24 h in the presence of ferric ammonium citrate (FAC). Ferroportin protein expression was induced with doxycycline for 24 h. The next day, the compounds were added. Test compounds were dissolved in DMSO. Cells were incubated with the test compounds for 6 h, and subsequently luciferase activity was measured using the Nano-Glo Luciferase Assay System and Glomax (Promega, Madison, Wis.). The average pEC50 was determined for the test compounds.
On to `C[C@@H]1OC[C@@H]1Oc1ccnc(-c2nc3c(c(N(C)CC(=O)NC(C)(C)C)n2)CCC3)c1` (racemic) [Compound 332, N-tert-butyl-2-{methyl[2-(4-{[(2S,3S)-2-methyloxetan-3-yl]oxy}pyridin-2-yl)-5H,6H,7H-cyclopenta[d]pyrimidin-4-yl]amino}acetamide], for which the pEC50 (as a rule, −log10 of the EC50, conventionally taken in molar units) stood at 7.8.

Consider `C[C@H]1OC[C@@H]1Oc1ccnc(-c2nc3c(c(N(C)CC(=O)NC(C)(C)C)n2)CCC3)c1` (racemic) [Compound 333, N-tert-butyl-2-{methyl[2-(4-{[(2R,3S)-2-methyloxetan-3-yl]oxy}pyridin-2-yl)-5H,6H,7H-cyclopenta[d]pyrimidin-4-yl]amino}acetamide], for which the pEC50 is recorded as 7.8.

As for `COc1ccnc(-c2nc3c(c(N(C)CC(=O)N[C@@H]4CCC[C@@H]4O)n2)CCC3)c1` (relative stereo) [Compound 170, N-[(1R,2S)-2-hydroxycyclopentyl]-2-{[2-(4-methoxypyridin-2-yl)-5H,6H,7H-cyclopenta[d]pyrimidin-4-yl](methyl)amino}acetamide], the pEC50 was 7.8.

As for `COc1ccnc(-c2nc3c(c(N(C)CC(=O)N[C@@H]4CCC[C@H]4O)n2)CCC3)c1` (relative stereo) [Compound 172, N-[(1R,2R)-2-hydroxycyclopentyl]-2-{[2-(4-methoxypyridin-2-yl)-5H,6H,7H-cyclopenta[d]pyrimidin-4-yl](methyl)amino}acetamide], the pEC50 was 7.5.

Take `COc1ccnc(-c2nc3c(c(N(C)CC(=O)N[C@@H]4CCCC[C@@H]4O)n2)CCC3)c1` (stereo in doubt) [Compound 168, N-[(1R,2S)-2-hydroxycyclohexyl]-2-{[2-(4-methoxypyridin-2-yl)-5H,6H,7H-cyclopenta[d]pyrimidin-4-yl](methyl)amino}acetamide]: the pEC50 is reported as 7.3.

Compound `COc1ccnc(-c2nc3c(c(N(C)CC(=O)N[C@H]4CCC[C@@H]4O)n2)CCC3)c1` (stereo in doubt) [Compound 173, N-[(1S,2S)-2-hydroxycyclopentyl]-2-{[2-(4-methoxypyridin-2-yl)-5H,6H,7H-cyclopenta[d]pyrimidin-4-yl](methyl)amino}acetamide] showed a negative-log EC50 (pEC50) of 6.8.

Compound `CN(CC(=O)NC(C)(C)C)c1nc(-c2cc(OCC(O)CO)ccn2)nc2c1CCC2` (stereo in doubt) [Compound 415, N-tert-butyl-2-[(2-{4-[(2R)-2,3-dihydroxypropoxy]pyridin-2-yl}-5H,6H,7H-cyclopenta[d]pyrimidin-4-yl)(methyl)amino]acetamidede] had a pEC50 of 7.7.

`CCC(C)(O)COc1ccnc(-c2nc3c(c(N(C)CC(=O)NC(C)(C)C)n2)CCC3)c1` (stereo in doubt) [Compound 446, N-tert-butyl-2-[(2-{4-[(2R)-2-hydroxy-2-methylbutoxy]pyridin-2-yl}-5H,6H,7H-cyclopenta[d]pyrimidin-4-yl)(methyl)amino]acetamide] returned a pEC50 of 8.2.

The compound `c1ccc(-c2nc3c(c(N4CC5CC(C4)c4ccccc45)n2)CCC3)nc1` [Compound 1, 10-[2-(pyridin-2-yl)-5H,6H,7H-cyclopenta[d]pyrimidin-4-yl]-10-azatricyclo[6.3.1.0^{2,7}]dodeca-2,4,6-triene] yielded a pEC50 of 6.9.

For the compound `COc1ccc2c(c1)CCN(c1nc(-c3ccccn3)nc3c1CCC3)CC2` [Compound 2, 7-methoxy-3-[2-(pyridin-2-yl)-5H,6H,7H-cyclopenta[d]pyrimidin-4-yl]-2,3,4,5-tetrahydro-1H-3-benzazepine], the pEC50 worked out at 6.6.

Compound `COc1cccc2c1CCN(c1nc(-c3ccccn3)nc3c1CCC3)CC2` [Compound 3, 6-methoxy-3-[2-(pyridin-2-yl)-5H,6H,7H-cyclopenta[d]pyrimidin-4-yl]-2,3,4,5-tetrahydro-1H-3-benzazepine] came in with a pEC50 of 6.8.

`COc1cccc(N2CCCN(c3nc(-c4ccccn4)nc4c3CCC4)CC2)c1` [Compound 4, 1-(3-methoxyphenyl)-4-[2-(pyridin-2-yl)-5H,6H,7H-cyclopenta[d]pyrimidin-4-yl]-1,4-diazepane] came in with a pEC50 of 6.4.

Source of the values: patent US11746100B2 (GLOBAL BLOOD THERAPEUTICS, INC., priority 2020, dated 2023).
